Like-named read-outs stand apart in the source and are kept apart here.
Test system: Swiss Albino or CD-1 male mice
Assay: Acetic acid writhing (AAW) analgesic assay
Format: in vivo, mouse
Conditions: for inhibition in vivo at 30 mg/kg: Mus musculus, 20 min, read-out: AAW % Efficacy
Experimental: Approaches for evaluating analgesic activity of a compound of the present invention in vivo include a “writhing test.” Briefly, the compound to be tested is administered [by, for example, injection (e.g., subcutaneous injection)] to the mouse. Thereafter, a 0.5% acetic acid solution is administered (i.p.) to a mouse and the numbers of writhing responses are counted for twenty minutes. Antinociception is quantified as reduction in the number of writhes respective to vehicle.
An analgesic assay was used to determine whether a given compound can reduce and/or prevent visceral pain in mice. The assay utilizes Swiss Albino or CD-1 male mice (5-10 mice per group), each mouse being approximately 0.015-0.030 kg on the study day. Mice were treated according to standard protocols.
The animal was given an intraperitoneal (IP) injection of an irritant (acetic acid) that induces “writhing” which may include: contractions of the abdomen, twisting and turning of the trunk, arching of the back and the extension of the hindlimbs. Mice are given a single IP injection (0.1 mL/10 g bodyweight) of a 0.5% acetic acid solution. After the injection the animals were returned to their observation enclosure and their behavior was observed. Contractions were counted between 0 and 20 minutes after the injection. The animals were used once. In certain instances, the test articles were administered at multiple doses to determine a dose response curve.
Table 4 provides the results for certain compounds of the present invention that were administered subcutaneously. Table 5 provides the results for certain compounds of the present invention that were administered orally.

## COCCOCCOCCOCCOCCOc1cccc(Nc2ccc3c(c2)[C@]2(C)CCN(CC4CC4)[C@H](C3=O)[C@@H]2C)c1 [Compound 8, (2S,6R,11R)-8-((3-(2,5,8,11,14-pentaoxahexadecan-16-yloxy)phenyl)amino)-3-(cyclopropylmethyl)-6,11-dimethyl-3,4,5,6-tetrahydro-2,6-methanobenzo[d]azocin-1(2H)-one]
subcutaneous, 30 mg/kg
  AAW % Efficacy: 100.0%

## COCCOCCOCCOCCOCCNc1cccc(Nc2ccc3c(c2)[C@]2(C)CCN(CC4CC4)[C@H](C3=O)[C@@H]2C)c1 [Compound 11, (2S,6R,11R)-8-((3-(2,5,8,11,14-pentaoxahexadecan-16-ylamino)phenyl)amino)-3-(cyclopropylmethyl)-6,11-dimethyl-3,4,5,6-tetrahydro-2,6-methanobenzo[d]azocin-1(2H)-one]
sc, subcutaneous
  inhibition in vivo at 30 mg/kg: 100%

## C[C@H]1[C@H]2C(=O)c3ccc(Nc4ccc(NCCOCCOCCOCCOCCOC(F)(F)F)cc4)cc3[C@]1(C)CCN2CC1CC1 [Compound 20, (2S,6R,11R)-3-(cyclopropylmethyl)-6,11-dimethyl-8-((4-((1,1,1-trifluoro-2,5,8,11,14-pentaoxahexadecan-16-yl)amino)phenyl)amino)-3,4,5,6-tetrahydro-2,6-methanobenzo[d]azocin-1(2H)-one]
oral
  inhibition in vivo at 30 mg/kg: 100%

Source: US10865186B2, “Opioid agonists and uses thereof” (Nektar Therapeutics, priority 2013, dated 2020)
